Reference: article PMC10066365, “Nemacol is a small molecule inhibitor of C. elegans vesicular acetylcholine transporter with anthelmintic potential” (Nature Communications, 2023)
Values joined by “and” are separate entries in the source; they are usually repeats but may differ in a detail not shown here. Identical values can stand only once. Like-named read-outs stand apart in the source and are kept apart here.

What was measured:
[1] = test system: Dirofilaria immitis microfilariae; assay: Dirofilaria immitis microfilariae immobility assay (DiroImager, 72 h); details: Dirofilaria immitis microfilariae
Outline: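 About 250 freshly purified microfilariae of the Missouri isolate per well in supplemented RPMI 1640, exposed to compound for 72 h. Motility scored by automated whole-plate optical imaging; medium with 1% DMSO as negative control.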

[2] = test system: C. elegans; assay: C. elegans motor phenotype scoring on solid media (Punc/jerky-unc, coiled, paralyzed), wild-type young adults; format: in vivo, Caenorhabditis elegans; details: for atypical locomotion (number of animals) / coiled (number of animals) / no phene (number of animals) / paralyzed (number of animals) / any phene: mean % fraction of young adults exhibiting any phenotype (coiled, jerky-Unc or paralyzed): one hour; for atypical locomotion (number of animals) / coiled (number of animals) / no phene (number of animals) / paralyzed (number of animals): young adults, 20 animals per trial, single technical replicate; for any phene: mean % fraction of young adults exhibiting any phenotype (coiled, jerky-Unc or paralyzed): mean of three biological replicates
[3] = test system: Pristionchus pacificus; assay: Pristionchus pacificus motor disruption dose-response on solid media, 1 h; details: for mean % any phene: any phenotype (coiled, jerky-Unc or paralyzed) at one hour, mean of three biological replicates; for rep 1 atypical locomotion / rep 1 coiled / rep 1 no phene / rep 1 paralyzed / rep 2 atypical locomotion / rep 2 coiled / rep 2 no phene / rep 2 paralyzed / rep 3 atypical locomotion / rep 3 coiled / rep 3 no phene / rep 3 paralyzed: count of 20 animals per trial, one hour
[4] = test system: Dirofilaria immitis L3/L4; assay: Dirofilaria immitis L3/L4 motility assay (DiroImager, 72 h); details: Dirofilaria immitis L4
[5] = molecular target: T1, rat VAChT (Rattus norvegicus, UniProt Q62666); assay: [3H]Vesamicol competitive radioligand binding, PC12 cells expressing ratVAChT
T1 construct: expressed in transfected cells; host or cells: rat PC12 (PC12 A123.7) cells, stably transfected; shared by Dr. Ali Roghani (Texas Tech University)
T1 sequence (Q62666 1-530): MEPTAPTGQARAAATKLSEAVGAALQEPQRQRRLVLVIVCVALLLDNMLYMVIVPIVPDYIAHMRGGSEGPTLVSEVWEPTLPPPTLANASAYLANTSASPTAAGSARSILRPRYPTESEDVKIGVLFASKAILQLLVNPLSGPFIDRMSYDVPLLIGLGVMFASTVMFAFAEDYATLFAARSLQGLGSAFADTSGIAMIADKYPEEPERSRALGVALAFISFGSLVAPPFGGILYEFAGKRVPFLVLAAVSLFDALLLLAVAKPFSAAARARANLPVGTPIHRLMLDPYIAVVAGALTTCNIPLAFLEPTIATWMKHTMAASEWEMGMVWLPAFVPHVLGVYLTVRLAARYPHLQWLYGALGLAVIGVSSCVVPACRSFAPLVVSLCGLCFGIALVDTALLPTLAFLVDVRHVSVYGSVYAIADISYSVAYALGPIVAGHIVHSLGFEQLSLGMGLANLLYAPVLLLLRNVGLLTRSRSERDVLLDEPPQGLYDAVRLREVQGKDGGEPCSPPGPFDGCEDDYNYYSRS

c1ccc(N2CCN(C3CCCCCC3)CC2)cc1 [Nemacol-59]
% effect (motility), DIROIM MF ([1]; 0.016 µM): 0% | % effect (motility), DIROIM MF ([1]; 0.08 µM): 0% | % effect (motility), DIROIM MF ([1]; 0.4 µM): 0% | % effect (motility), DIROIM MF ([1]; 2 µM): 0% | % effect (motility), DIROIM MF ([1]; 10 µM): 0% | atypical locomotion (number of animals) ([2]; 3.75uM): 5 and 4 and 7 and 2 | coiled (number of animals) ([2]; 3.75uM): 0 | no phene (number of animals) ([2]; 3.75uM): 15 and 16 and 13 | paralyzed (number of animals) ([2]; 3.75uM): 0 and 2 | any phene: mean % fraction of young adults exhibiting any phenotype (coiled, jerky-Unc or paralyzed) ([2]; 3.75uM): 24.1667% | atypical locomotion (number of animals) ([2]; 15uM): 15 and 17 and 14 and 16 and 18 | coiled (number of animals) ([2]; 15uM): 0 and 1 and 3 and 2 | no phene (number of animals) ([2]; 15uM): 0 and 2 | paralyzed (number of animals) ([2]; 15uM): 5 and 3 and 0 | any phene: mean % fraction of young adults exhibiting any phenotype (coiled, jerky-Unc or paralyzed) ([2]; 15uM): 98.3333% | atypical locomotion (number of animals) ([2]; 60uM): 1 and 4 and 8 and 5 and 3 | coiled (number of animals) ([2]; 60uM): 12 and 6 and 4 and 7 | no phene (number of animals) ([2]; 60uM): 0 | paralyzed (number of animals) ([2]; 60uM): 7 and 10 and 8 and 9 and 11 | EC50 ([2]; Caenorhabditis elegans, any motor phenotype after 1 h on solid media, ± 95% CI, read-out: C. elegans - motor disruption EC50): 5.1 ± 0.5 µM | EC50 ([3]; Pristionchus pacificus, 1 h, read-out: P. pacificus motor disruption EC50): > 60 µM | mean % any phene ([3]; conc 3.75): 0% | rep 1 atypical locomotion ([3]; conc 3.75): 0 | rep 1 coiled ([3]; conc 3.75): 0 | rep 1 no phene ([3]; conc 3.75): 20 | rep 1 paralyzed ([3]; conc 3.75): 0 | rep 2 atypical locomotion ([3]; conc 3.75): 0 | rep 2 coiled ([3]; conc 3.75): 0 | rep 2 no phene ([3]; conc 3.75): 20 | rep 2 paralyzed ([3]; conc 3.75): 0 | rep 3 atypical locomotion ([3]; conc 3.75): 0 | rep 3 coiled ([3]; conc 3.75): 0 | rep 3 no phene ([3]; conc 3.75): 20 | rep 3 paralyzed ([3]; conc 3.75): 0 | mean % any phene ([3]; conc 15): 0% | rep 1 atypical locomotion ([3]; conc 15): 0 | rep 1 coiled ([3]; conc 15): 0 | rep 1 no phene ([3]; conc 15): 20 | rep 1 paralyzed ([3]; conc 15): 0 | rep 2 atypical locomotion ([3]; conc 15): 0 | rep 2 coiled ([3]; conc 15): 0 | rep 2 no phene ([3]; conc 15): 20 | rep 2 paralyzed ([3]; conc 15): 0 | rep 3 atypical locomotion ([3]; conc 15): 0 | rep 3 coiled ([3]; conc 15): 0 | rep 3 no phene ([3]; conc 15): 20 | rep 3 paralyzed ([3]; conc 15): 0 | mean % any phene ([3]; conc 60): 5.833% | rep 1 atypical locomotion ([3]; conc 60): 4 and 2 | rep 1 coiled ([3]; conc 60): 0 | rep 1 no phene ([3]; conc 60): 16 and 18 | rep 1 paralyzed ([3]; conc 60): 0 | rep 2 atypical locomotion ([3]; conc 60): 0 | rep 2 no phene ([3]; conc 60): 19 and 20 | rep 2 paralyzed ([3]; conc 60): 0 | rep 3 atypical locomotion ([3]; conc 60): 0 | rep 3 coiled ([3]; conc 60): 0 | rep 3 no phene ([3]; conc 60): 20 | rep 3 paralyzed ([3]; conc 60): 0 | % effect (motility), DIROIM L4 ([4]; 10 µM): 30% | % effect (motility), DIROIM L4 ([4]; 50 µM): 25% | Ki ([5]; [3H]Vesamicol binding, PC12, experiment 1, read-out: expt 1 Ki (M) vs. rat VAChT (PC12)): 1.85e-06 M | Ki ([5]; [3H]Vesamicol binding, PC12, experiment 2, read-out: expt 2 Ki (M) vs. rat VAChT (PC12)): 1.68e-06 M | Ki ([5]; [3H]Vesamicol binding, rat VAChT (PC12), mean of 2-3 experiments, read-out: mean Ki): 1.76e-06 M | Ki ([5]; [3H]Vesamicol displacement, mean, read-out: ratVAChT Ki): 1.76e-06 M
